Literature values, collected in patent US20240238221A1, “[…] TREATING NEUROPATHIC PAIN IN COVID-19 PATIENTS” (Grünenthal GmbH, priority 2021, published 2024).

Assays:
[1] = in the investigated dose ranges; vs. morphine, oxycodone or hydromorphone
[2] = tested on: UGT1A6, UGT1A9 and UGT2B7; details: mediated via UGT mainly UGT1A6, UGT1A9 and UGT2B7 isoforms
serotonin reuptake = details: unlike tramadol
[3] = at analgesic doses vs. Morphine

For CC[C@@H](c1cccc(O)c1)[C@@H](C)CN(C)C [Tapentadol], the “risk of drug-drug interactions at the CYP450 level” value (CYP450) is given as “low risk”, the analgesic efficacy [1] is given as “comparable to that of typical strong opioids” and the major elimination pathway [2] is given as “conjugation with glucuronic acid”. For the same compound, the serotonin reuptake inhibition (serotonin reuptake) was “only weak serotonin reuptake inhibition” and the immunosuppressive activity [3] was “lower immunosuppressive activity”.
